Active and inactive are the calls of the source.
Experiments:
HEK293 = assay: EBV LMP1 TES2 canonical NF-kB signalling blockers – cell-based, HEK293, luciferase, cherry-pick, dose response (AID 588343); type: functional; details: Homo sapiens
[1] = molecular target: T1, Endoribonuclease toxin MazF (Escherichia coli K-12, UniProt P0AE70); assay: substrate-only fluorescence increase artefacts – biochemical, single-stranded RNase substrate, counter-screen for MazEF activator project, dose response (AID 588502); type: functional
T1 sequence (P0AE70 whole entry): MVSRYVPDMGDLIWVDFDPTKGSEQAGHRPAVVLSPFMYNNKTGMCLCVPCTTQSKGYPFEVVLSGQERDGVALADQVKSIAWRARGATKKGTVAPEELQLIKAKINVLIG

[2] = molecular target: T1, Endoribonuclease toxin MazF; assay: activation of MazEF endoribonuclease cleavage – biochemical, fluorescence, single-stranded RNA substrate, uHTS hits, dose response (AID 588481); type: functional
Paired box protein Pax-8 = Paired box protein Pax-8 (Homo sapiens, UniProt Q06710); assay: PAX8 transcriptional activity inhibition in RMG-I – RMG-I cells, luciferase, cherry-pick, dose response (AID 687027); type: functional, cell-based;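 also: luciferase reporter driven by Pax8 target thyroperoxidase promoter measured by SteadyGlo luminescence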
Chain of Paired box protein Pax-8 (Q06710 whole entry): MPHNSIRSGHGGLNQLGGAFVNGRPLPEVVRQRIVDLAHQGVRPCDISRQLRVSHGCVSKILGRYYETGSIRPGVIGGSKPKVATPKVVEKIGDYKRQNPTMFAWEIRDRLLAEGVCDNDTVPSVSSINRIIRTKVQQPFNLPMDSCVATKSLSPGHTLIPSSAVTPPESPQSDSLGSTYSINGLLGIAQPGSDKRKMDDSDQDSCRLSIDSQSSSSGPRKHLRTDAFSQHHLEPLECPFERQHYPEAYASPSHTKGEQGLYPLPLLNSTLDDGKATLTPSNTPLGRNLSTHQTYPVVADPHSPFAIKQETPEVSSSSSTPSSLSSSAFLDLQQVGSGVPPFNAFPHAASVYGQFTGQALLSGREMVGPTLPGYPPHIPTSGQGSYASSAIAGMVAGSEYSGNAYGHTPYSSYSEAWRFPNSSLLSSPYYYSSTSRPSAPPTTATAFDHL

Caspase-6 = molecular target: T2, Caspase-6 (Homo sapiens, UniProt P55212); assay: inhibition of CASP6 peptide cleavage – biochemical, VEID-R110 fluorescence, cherry-pick, dose response (AID 720632)
T2 sequence (P55212 whole entry): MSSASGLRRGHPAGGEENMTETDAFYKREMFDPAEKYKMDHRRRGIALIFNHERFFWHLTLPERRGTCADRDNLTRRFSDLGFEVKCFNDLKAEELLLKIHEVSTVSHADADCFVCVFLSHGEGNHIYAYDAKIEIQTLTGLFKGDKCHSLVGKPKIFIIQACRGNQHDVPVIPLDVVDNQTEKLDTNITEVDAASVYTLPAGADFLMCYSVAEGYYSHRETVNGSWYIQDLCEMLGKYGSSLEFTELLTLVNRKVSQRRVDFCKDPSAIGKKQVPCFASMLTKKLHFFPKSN

[3] = molecular target: T3, Rac GTPase-activating protein 1 (Homo sapiens, UniProt Q9H0H5); assay: blockers of MgcRacGAP-driven Rac1 GTP hydrolysis – biochemical, ADP Hunter fluorescence, primary and confirmatory, confirmation (AID 624330); type: functional
T3 sequence (Q9H0H5 whole entry): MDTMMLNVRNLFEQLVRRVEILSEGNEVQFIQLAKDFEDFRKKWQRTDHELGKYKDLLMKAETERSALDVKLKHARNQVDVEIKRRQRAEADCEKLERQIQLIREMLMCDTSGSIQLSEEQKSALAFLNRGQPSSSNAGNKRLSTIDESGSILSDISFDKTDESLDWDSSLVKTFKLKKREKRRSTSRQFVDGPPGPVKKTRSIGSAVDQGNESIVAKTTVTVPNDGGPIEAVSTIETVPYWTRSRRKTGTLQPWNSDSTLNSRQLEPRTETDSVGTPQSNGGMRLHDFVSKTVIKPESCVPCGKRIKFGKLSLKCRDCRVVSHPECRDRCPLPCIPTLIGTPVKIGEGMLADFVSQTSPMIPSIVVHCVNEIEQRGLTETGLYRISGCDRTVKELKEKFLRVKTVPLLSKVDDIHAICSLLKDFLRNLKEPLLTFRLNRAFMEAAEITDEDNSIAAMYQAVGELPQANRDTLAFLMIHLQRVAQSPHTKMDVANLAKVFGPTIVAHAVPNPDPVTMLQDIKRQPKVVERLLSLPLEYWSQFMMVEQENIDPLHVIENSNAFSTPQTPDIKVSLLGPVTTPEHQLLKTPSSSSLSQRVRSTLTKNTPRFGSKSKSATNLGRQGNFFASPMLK

Genome polyprotein = Genome polyprotein (dengue virus type 2, UniProt P29990); assay: flavivirus cap methylation enzyme inhibition – biochemical, confirmation dose response, primary screen (AID 588689); type: functional
Chain of Genome polyprotein (P29990 2492-3391 limits assumed): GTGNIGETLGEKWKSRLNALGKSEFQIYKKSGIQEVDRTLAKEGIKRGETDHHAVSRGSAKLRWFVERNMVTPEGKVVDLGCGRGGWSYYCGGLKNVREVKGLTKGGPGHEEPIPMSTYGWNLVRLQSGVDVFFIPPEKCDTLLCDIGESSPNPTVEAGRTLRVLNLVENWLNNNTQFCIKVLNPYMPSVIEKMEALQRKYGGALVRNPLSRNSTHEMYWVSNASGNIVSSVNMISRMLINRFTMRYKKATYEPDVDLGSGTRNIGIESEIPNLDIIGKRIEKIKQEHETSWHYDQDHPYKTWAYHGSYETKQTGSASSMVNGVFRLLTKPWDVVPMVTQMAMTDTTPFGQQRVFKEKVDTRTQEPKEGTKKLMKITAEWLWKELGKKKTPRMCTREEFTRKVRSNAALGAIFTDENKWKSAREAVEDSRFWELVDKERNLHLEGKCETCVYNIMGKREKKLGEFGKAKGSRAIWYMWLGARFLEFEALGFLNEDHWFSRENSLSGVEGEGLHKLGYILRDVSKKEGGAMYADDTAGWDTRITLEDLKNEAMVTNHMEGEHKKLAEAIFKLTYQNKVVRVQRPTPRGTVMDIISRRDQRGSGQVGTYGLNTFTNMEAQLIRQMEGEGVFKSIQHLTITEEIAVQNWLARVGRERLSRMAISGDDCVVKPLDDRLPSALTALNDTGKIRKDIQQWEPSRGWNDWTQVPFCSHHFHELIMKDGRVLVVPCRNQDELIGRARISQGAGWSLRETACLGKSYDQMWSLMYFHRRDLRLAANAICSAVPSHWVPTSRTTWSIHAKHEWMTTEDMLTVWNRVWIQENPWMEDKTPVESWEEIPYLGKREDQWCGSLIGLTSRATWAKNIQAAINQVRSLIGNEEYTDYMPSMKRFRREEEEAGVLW

[4] = molecular target: Dual specificity tyrosine-phosphorylation-regulated kinase 1A (Rattus norvegicus, UniProt Q63470); type: biochemical, Homo sapiens
Protein RecA = molecular target: T4, Protein RecA (Mycobacterium tuberculosis, UniProt P9WHJ3); assay: Fluorescence Cell-Free Homogeneous Dose Retest to Identify Inhibitors of RecA-Intein Splicing Activity. [Related pubchem assays (depositor defined):AID2097, AID2223, AID489010, AID492950]; type: functional
T4 sequence (P9WHJ3 whole entry): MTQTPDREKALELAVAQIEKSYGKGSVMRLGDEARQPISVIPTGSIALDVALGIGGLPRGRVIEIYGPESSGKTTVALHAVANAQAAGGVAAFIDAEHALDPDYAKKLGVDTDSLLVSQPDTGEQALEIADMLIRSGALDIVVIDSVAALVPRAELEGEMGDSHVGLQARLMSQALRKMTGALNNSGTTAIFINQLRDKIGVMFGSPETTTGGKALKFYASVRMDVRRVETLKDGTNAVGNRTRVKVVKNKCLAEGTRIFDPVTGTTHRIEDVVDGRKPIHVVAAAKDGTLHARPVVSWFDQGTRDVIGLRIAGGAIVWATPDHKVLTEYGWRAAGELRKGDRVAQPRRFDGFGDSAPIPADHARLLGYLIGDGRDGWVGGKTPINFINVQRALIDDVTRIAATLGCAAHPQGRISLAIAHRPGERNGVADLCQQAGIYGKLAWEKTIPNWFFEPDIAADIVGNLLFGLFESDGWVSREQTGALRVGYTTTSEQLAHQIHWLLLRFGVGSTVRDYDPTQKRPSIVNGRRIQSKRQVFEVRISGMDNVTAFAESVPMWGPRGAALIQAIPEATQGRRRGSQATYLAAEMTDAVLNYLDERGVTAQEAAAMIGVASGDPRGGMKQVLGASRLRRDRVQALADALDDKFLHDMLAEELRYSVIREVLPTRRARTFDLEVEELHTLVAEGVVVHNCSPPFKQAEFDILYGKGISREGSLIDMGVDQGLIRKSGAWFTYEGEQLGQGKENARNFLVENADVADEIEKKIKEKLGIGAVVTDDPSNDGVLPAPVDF

[5] = molecular target: T5, Replicative DNA helicase DnaB (Mycobacterium tuberculosis, UniProt P9WMR3); assay: DnaB intein splicing inhibitors, dose response, biochemical, cell-free fluorescence (AID 449749); type: functional
T5 sequence (P9WMR3 whole entry): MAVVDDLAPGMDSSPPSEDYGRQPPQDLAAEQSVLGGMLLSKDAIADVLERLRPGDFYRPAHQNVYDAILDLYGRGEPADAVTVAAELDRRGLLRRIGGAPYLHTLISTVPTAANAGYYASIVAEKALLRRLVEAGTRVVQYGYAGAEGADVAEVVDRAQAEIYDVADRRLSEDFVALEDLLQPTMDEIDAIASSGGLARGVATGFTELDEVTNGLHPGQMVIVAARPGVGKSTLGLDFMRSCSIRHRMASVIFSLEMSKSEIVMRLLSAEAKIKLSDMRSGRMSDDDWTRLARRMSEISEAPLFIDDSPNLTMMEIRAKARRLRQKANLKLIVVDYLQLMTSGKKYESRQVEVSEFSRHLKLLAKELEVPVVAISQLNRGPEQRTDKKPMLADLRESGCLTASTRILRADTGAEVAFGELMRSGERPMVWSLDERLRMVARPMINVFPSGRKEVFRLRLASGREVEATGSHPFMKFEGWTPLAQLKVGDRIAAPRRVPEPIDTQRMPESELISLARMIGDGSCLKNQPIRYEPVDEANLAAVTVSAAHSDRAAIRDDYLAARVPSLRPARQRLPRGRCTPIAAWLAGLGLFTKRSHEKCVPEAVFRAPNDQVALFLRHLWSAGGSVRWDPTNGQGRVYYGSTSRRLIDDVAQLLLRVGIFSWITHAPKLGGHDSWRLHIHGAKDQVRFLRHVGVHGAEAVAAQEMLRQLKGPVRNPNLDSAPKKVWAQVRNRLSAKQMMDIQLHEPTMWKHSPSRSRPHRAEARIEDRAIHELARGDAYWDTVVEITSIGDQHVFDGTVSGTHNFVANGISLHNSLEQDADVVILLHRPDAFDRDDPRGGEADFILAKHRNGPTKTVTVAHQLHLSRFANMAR

[6] = molecular target: T6, Apoptotic protease-activating factor 1 (Homo sapiens, UniProt O14727); type: functional
T6 sequence (O14727 whole entry): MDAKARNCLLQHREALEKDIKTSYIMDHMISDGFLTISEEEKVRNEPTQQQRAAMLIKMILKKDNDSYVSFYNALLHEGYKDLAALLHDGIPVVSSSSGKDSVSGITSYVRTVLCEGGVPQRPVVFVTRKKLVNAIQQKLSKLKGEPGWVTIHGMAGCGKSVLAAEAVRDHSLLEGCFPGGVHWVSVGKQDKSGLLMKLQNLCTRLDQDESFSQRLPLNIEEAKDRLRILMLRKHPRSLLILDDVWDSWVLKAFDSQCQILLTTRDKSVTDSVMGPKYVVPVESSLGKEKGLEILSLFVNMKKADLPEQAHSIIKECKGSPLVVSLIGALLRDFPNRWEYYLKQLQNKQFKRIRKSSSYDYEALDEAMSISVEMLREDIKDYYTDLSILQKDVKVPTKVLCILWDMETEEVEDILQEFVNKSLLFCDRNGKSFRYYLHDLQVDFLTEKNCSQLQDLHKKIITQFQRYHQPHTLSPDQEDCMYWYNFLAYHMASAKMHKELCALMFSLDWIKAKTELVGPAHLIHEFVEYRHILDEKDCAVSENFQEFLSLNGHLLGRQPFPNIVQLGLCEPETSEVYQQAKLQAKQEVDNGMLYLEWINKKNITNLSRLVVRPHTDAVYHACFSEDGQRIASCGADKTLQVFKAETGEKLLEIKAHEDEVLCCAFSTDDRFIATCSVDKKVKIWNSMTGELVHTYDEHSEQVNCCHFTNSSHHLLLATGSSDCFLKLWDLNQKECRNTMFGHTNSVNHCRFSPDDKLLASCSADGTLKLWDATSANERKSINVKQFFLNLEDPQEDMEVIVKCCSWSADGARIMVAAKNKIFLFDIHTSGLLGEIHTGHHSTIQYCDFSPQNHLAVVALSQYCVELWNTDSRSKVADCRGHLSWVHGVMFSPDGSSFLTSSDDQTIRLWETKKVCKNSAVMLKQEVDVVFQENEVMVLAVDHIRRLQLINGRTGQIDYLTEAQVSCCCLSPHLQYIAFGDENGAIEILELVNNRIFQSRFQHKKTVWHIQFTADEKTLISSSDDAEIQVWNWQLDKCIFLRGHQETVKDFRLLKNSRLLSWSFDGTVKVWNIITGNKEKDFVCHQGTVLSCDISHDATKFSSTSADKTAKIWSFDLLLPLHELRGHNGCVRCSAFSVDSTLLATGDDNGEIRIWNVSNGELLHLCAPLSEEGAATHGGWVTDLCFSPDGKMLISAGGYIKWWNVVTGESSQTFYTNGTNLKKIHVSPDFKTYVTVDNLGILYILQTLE

INS1 = assay: INS-1E survival protection against cytokine death – cell-based, luminescence, retest, dose response (AID 449756); type: functional; details: Rattus norvegicus;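 also: cell death triggered by IL-1 beta plus TNF-alpha plus IFN-gamma mixture; protective hits raise ATP signal compared with cytokine alone wells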
[7] = molecular target: T7, Tyrosyl-DNA phosphodiesterase 2 (Homo sapiens, UniProt O95551); assay: potency against TDP2 phosphodiesterase activity – biochemical, epi absorbance, IC50, dose response (AID 743297)
T7 sequence (O95551 whole entry): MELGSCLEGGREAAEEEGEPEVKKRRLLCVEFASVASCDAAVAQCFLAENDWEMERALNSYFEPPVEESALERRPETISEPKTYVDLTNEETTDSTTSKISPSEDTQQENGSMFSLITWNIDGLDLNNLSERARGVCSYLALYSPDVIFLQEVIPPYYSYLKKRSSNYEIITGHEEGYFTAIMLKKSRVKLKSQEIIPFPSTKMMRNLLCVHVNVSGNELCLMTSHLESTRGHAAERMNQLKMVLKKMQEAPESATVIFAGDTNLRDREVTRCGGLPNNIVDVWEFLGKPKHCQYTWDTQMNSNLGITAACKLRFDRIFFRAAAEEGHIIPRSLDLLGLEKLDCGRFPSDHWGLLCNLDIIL

[8] = Trypanosoma cruzi growth suppression in host cells – NIH3T3 host cells, beta-gal luminescence, confirmation (AID 2044); type: functional, cell-based;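 also: intracellular parasites grown in NIH/3T3 mouse fibroblasts as host cells; luminescent beta-galactosidase reporter signal from transgenic T. cruzi replicating inside host cells; inhibitors lower the luminescence signal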
[9] = NIH3T3 cell viability loss – ATP luminescence, mouse fibroblasts, counter-screen, dose response (AID 2010); type: functional, cell-based;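 also: cells exposed to compound for about 90 hours before reading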

## CC(C)Nc1nnc(SCC(=O)c2c(N)n(Cc3ccccc3)c(=O)n(C)c2=O)s1
HEK293
  AC50: 101 µM (active)

## Cc1ccc(-n2nnnc2SCC(=O)c2c(N)n(C3CC3)c(=O)[nH]c2=O)cc1C
[1]
  EC50: > 99 µM (inactive)
[2]
  EC50: > 99 µM (inactive)

## Nc1nc(Sc2ccc([N+](=O)[O-])c3nonc23)c2[nH]cnc2n1
Paired box protein Pax-8
  AC50: 2.17 µM (active)
Caspase-6
  AC50: 5.68 µM (active)
[3]
  IC50: 49.7 µM (active)
Genome polyprotein
  IC50: 16 µM (active)

## Cc1ccc(NC2=C(N3CCCCC3)C(=O)c3ccccc3C2=O)cc1
[4]
  AC50: 11 µM (active)
Protein RecA
  EC50: 0.619 µM (active)
[5]
  AC50: 7.31 µM (active)
[6]
  IC50: 4.88 µM (active)
INS1
  AC50: 0.489 µM (active)
[7]
  IC50: > 128 µM (inactive)
[8]
  EC50: 0.629 µM (active)
[9]
  EC50: > 30 µM (not active)
